Experimental data from paper PMC7468108 (Communications Biology, 2020).

Legend:
Aβ42 = target: T1, Aβ42 (Homo sapiens, UniProt P05067); experiment: ThT-binding assay, inhibition of Aβ42 aggregation; assay type: biochemical; details: for % amyloid of Aβ42: Aβ42 10 µM; for Normalized ThT fluorescence: Aβ42:compound 1:5
T1 construct: purchased rPeptide (USA)
Description: ThT is known to intercalate within the amyloid fibrils resulting in fluorescence emission proportionate to the amyloid growth.
The resulting thin films were dissolved in PBS (100 mM, pH 7.4) and sonicated for 5 min to get a stock concentration of 50 µM, which immediately diluted to required concentration for an experiment. Stock solutions of ThT (4 mM in PBS) and hybrid molecules (10 mM in PBS) were prepared. All the stock solutions were diluted according to the requirement.
The experiment was performed according to the previous report. […] […] Excitation and emission wavelengths were set at 440 nm and 485 nm, respectively.

[1] = tested on: SH-SY5Y cells exposed to pre-formed Aβ42 fibrils; experiment: XTT assay, reduction of Aβ42-induced cytotoxicity in SH-SY5Y; assay type: cell-based, human; parameters: %Viability: dose or concentration left out as unconfirmed
Description: (§1) The peptide assemblies were then incubated for further 24 h with SH-SY5Y or HEK-293 cells and cell viability was monitored by XTT assay (Fig. 9). […] The mixtures were then independently applied to the respective cells for 24 h, and cell viability was further measured by XTT assay (Fig. 10a).
(§2) The SH-SY5Y and HEK-293 cell lines (2 × 10^5 cells/mL) were cultured in 96-well tissue microplates (100 µL/well) and allowed to adhere overnight at 37 °C. The conjugate molecules were dissolved in DMEM:nutrient mixture F12 (Ham’s) (1:1) (Biological Industries, Israel) at different concentrations. The negative control was prepared as medium without hybrid molecules and treated in the same manner. 100 µL of medium with or without hybrid molecules were added to each well in triplicate. Following incubation for 24 h at 37 °C, cell viability was evaluated using the 2,3-bis(2-methoxy-4-nitro-5-sulfophenyl)-2H-tetrazolium-5-carboxanilide (XTT) cell proliferation assay kit (Biological Industries, Israel) according to the manufacturer’s instructions. Briefly, 100 µL of activation reagent was added to 5 mL of XTT reagent, followed by the addition of 50 µL of activated-XTT solution to each well. After 2 h incubation at 37 °C, color intensity was measured using an ELISA microplate reader at 450 nm and 630 nm. Results are presented as mean and mean standard error. Each experiment was repeated minimum three times.
(§3) For the quantitative data derived from ThT and XTT assays, statistical significance, expressed as p-value, was determined using Student’s t-test calculation applied at the end of the experiments, setting tails to 2 (tailed distribution) and type to 2 (samples equal variance), according to reported methods. From the XTT viability assays, EC50 and Emax values were determined from the dose-response curves of each tested molecule using non-linear least-square data fitting, according to literature.

[2] = tested on: HEK-293 cells exposed to pre-formed hIAPP fibrils; experiment: XTT assay, reduction of hIAPP-induced cytotoxicity in HEK-293; assay type: cell-based; details: Homo sapiens
Description: as §1, §2, §3

T1 sequence (P05067 672-713 limits assumed): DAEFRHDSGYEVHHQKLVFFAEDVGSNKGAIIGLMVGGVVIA

Structure (SMILES): NC(Cc1c[nH]c2ccccc12)C(=O)NC(Cc1c[nH]c2ccccc12)C(=O)O (stereo not shown) [WW]
- inhibition of Aβ42 fibril formation (ThT), in words (Aβ42; any molar ratio (5:1, 1:1, 1:5)): no inhibition effect
- % amyloid of Aβ42 (Aβ42; molar ratio Aβ42:tested molecule 1:1): 98.904%
- % amyloid of Aβ42 (Aβ42; molar ratio Aβ42:tested molecule 1:5): 105.519%
- % amyloid of Aβ42 (Aβ42; molar ratio Aβ42:tested molecule 5:1): 93.190%
- Normalized ThT fluorescence (Aβ42; time 0.000 h): 100.247
- Normalized ThT fluorescence (Aβ42; time 0.167 h): 60.188
- Normalized ThT fluorescence (Aβ42; time 0.333 h): 57.612
- Normalized ThT fluorescence (Aβ42; time 0.500 h): 73.246
- Normalized ThT fluorescence (Aβ42; time 0.667 h): 91.915
- Normalized ThT fluorescence (Aβ42; time 0.833 h): 133.372
- Normalized ThT fluorescence (Aβ42; time 1.000 h): 185.130
- Normalized ThT fluorescence (Aβ42; time 1.167 h): 238.325
- Normalized ThT fluorescence (Aβ42; time 1.333 h): 306.731
- Normalized ThT fluorescence (Aβ42; time 1.500 h): 377.171
- Normalized ThT fluorescence (Aβ42; time 1.667 h): 441.860
- Normalized ThT fluorescence (Aβ42; time 1.833 h): 512.406
- Normalized ThT fluorescence (Aβ42; time 2.000 h): 563.139
- Normalized ThT fluorescence (Aβ42; time 2.167 h): 622.335
- Normalized ThT fluorescence (Aβ42; time 2.333 h): 703.467
- Normalized ThT fluorescence (Aβ42; time 2.500 h): 748.995
- Normalized ThT fluorescence (Aβ42; time 2.667 h): 831.052
- Normalized ThT fluorescence (Aβ42; time 2.833 h): 768.926
- Normalized ThT fluorescence (Aβ42; time 3.000 h): 842.887
- Normalized ThT fluorescence (Aβ42; time 3.167 h): 889.978
- Normalized ThT fluorescence (Aβ42; time 3.333 h): 935.606
- Normalized ThT fluorescence (Aβ42; time 3.500 h): 870.330
- Normalized ThT fluorescence (Aβ42; time 3.667 h): 968.307
- Normalized ThT fluorescence (Aβ42; time 3.833 h): 972.259
- Normalized ThT fluorescence (Aβ42; time 4.000 h): 873.484
- Normalized ThT fluorescence (Aβ42; time 4.167 h): 934.106
- Normalized ThT fluorescence (Aβ42; time 4.333 h): 1006.391
- Normalized ThT fluorescence (Aβ42; time 4.500 h): 929.674
- Normalized ThT fluorescence (Aβ42; time 4.667 h): 937.654
- Normalized ThT fluorescence (Aβ42; time 4.833 h): 1043.183
- Normalized ThT fluorescence (Aβ42; time 5.000 h): 1070.273
- Normalized ThT fluorescence (Aβ42; time 5.167 h): 1001.135
- Normalized ThT fluorescence (Aβ42; time 5.333 h): 988.346
- Normalized ThT fluorescence (Aβ42; time 5.500 h): 1039.570
- Normalized ThT fluorescence (Aβ42; time 5.667 h): 1028.736
- Normalized ThT fluorescence (Aβ42; time 5.833 h): 1034.411
- Normalized ThT fluorescence (Aβ42; time 6.000 h): 1074.727
- Normalized ThT fluorescence (Aβ42; time 6.167 h): 1044.333
- Normalized ThT fluorescence (Aβ42; time 6.333 h): 1117.377
- Normalized ThT fluorescence (Aβ42; time 6.500 h): 1116.291
- Normalized ThT fluorescence (Aβ42; time 6.667 h): 1054.239
- Normalized ThT fluorescence (Aβ42; time 6.833 h): 1138.465
- Normalized ThT fluorescence (Aβ42; time 7.000 h): 1115.829
- Normalized ThT fluorescence (Aβ42; time 7.167 h): 1058.156
- Normalized ThT fluorescence (Aβ42; time 7.333 h): 1094.730
- Normalized ThT fluorescence (Aβ42; time 7.500 h): 1092.412
- Normalized ThT fluorescence (Aβ42; time 7.667 h): 1062.031
- Normalized ThT fluorescence (Aβ42; time 7.833 h): 1136.103
- Normalized ThT fluorescence (Aβ42; time 8.000 h): 1128.627
- Normalized ThT fluorescence (Aβ42; time 8.167 h): 1116.746
- Normalized ThT fluorescence (Aβ42; time 8.333 h): 1080.689
- Normalized ThT fluorescence (Aβ42; time 8.500 h): 1146.007
- Normalized ThT fluorescence (Aβ42; time 8.667 h): 1085.963
- Normalized ThT fluorescence (Aβ42; time 8.833 h): 1146.093
- Normalized ThT fluorescence (Aβ42; time 9.000 h): 1168.158
- Normalized ThT fluorescence (Aβ42; time 9.167 h): 1195.194
- Normalized ThT fluorescence (Aβ42; time 9.333 h): 1188.939
- Normalized ThT fluorescence (Aβ42; time 9.500 h): 1216.176
- Normalized ThT fluorescence (Aβ42; time 9.667 h): 1201.344
- Normalized ThT fluorescence (Aβ42; time 9.833 h): 1137.291
- Normalized ThT fluorescence (Aβ42; time 10.000 h): 1184.898
- Normalized ThT fluorescence (Aβ42; time 10.167 h): 1153.959
- Normalized ThT fluorescence (Aβ42; time 10.333 h): 1205.518
- Normalized ThT fluorescence (Aβ42; time 10.500 h): 1174.187
- Normalized ThT fluorescence (Aβ42; time 10.667 h): 1185.205
- Normalized ThT fluorescence (Aβ42; time 10.833 h): 1189.623
- Normalized ThT fluorescence (Aβ42; time 11.000 h): 1150.543
- Normalized ThT fluorescence (Aβ42; time 11.167 h): 1169.609
- Normalized ThT fluorescence (Aβ42; time 11.333 h): 1161.417
- Normalized ThT fluorescence (Aβ42; time 11.500 h): 1208.267
- Normalized ThT fluorescence (Aβ42; time 11.667 h): 1187.121
- Normalized ThT fluorescence (Aβ42; time 11.833 h): 1199.506
- Normalized ThT fluorescence (Aβ42; time 12.000 h): 1229.396
- Normalized ThT fluorescence (Aβ42; time 12.167 h): 1189.375
- Normalized ThT fluorescence (Aβ42; time 12.333 h): 1145.079
- Normalized ThT fluorescence (Aβ42; time 12.500 h): 1220.539
- Normalized ThT fluorescence (Aβ42; time 12.667 h): 1203.612
- Normalized ThT fluorescence (Aβ42; time 12.833 h): 1183.933
- Normalized ThT fluorescence (Aβ42; time 13.167 h): 1197.309
- Normalized ThT fluorescence (Aβ42; time 13.333 h): 1166.138
- Normalized ThT fluorescence (Aβ42; time 13.500 h): 1200.493
- Normalized ThT fluorescence (Aβ42; time 13.667 h): 1198.718
- Normalized ThT fluorescence (Aβ42; time 13.833 h): 1242.576
- Normalized ThT fluorescence (Aβ42; time 14.000 h): 1232.657
- Normalized ThT fluorescence (Aβ42; time 14.167 h): 1186.307
- Normalized ThT fluorescence (Aβ42; time 14.333 h): 1161.142
- Normalized ThT fluorescence (Aβ42; time 14.500 h): 1146.151
- Normalized ThT fluorescence (Aβ42; time 14.667 h): 1198.390
- Normalized ThT fluorescence (Aβ42; time 14.833 h): 1196.409
- Normalized ThT fluorescence (Aβ42; time 15.000 h): 1194.696
- Normalized ThT fluorescence (Aβ42; time […]): 1190.377
- %Viability ([1]; Aβ42 […] µM : compound 1:1): 54.466%
- %Viability ([1]; Aβ42 […] µM : compound 1:5): 57.303%
- %Viability ([1]; Aβ42 […] µM : compound 1:10): 57.999%
- %Viability ([1]; Aβ42 […] µM : compound 1:20): 59.030%
- %Viability ([1]; Aβ42 […] µM : compound 5:1): 52.403%
- %Viability ([1]; Aβ42 […] µM : compound 10:1): 48.896%
- %Viability ([1]; Aβ42 […] µM : compound 20:1): 51.423%
- %Viability ([1]; Aβ42 […] µM : compound 50:1): 50.031%
- EC50 ([1]; Homo sapiens, read-out: Aβ42 EC50): 13 µM
- viability at 10 µM ([2]; HEK293, hIAPP (10 µM) : molecule 1:1, HEK-293 cells, normalized XTT data): 55.2%
- viability at 50 µM ([2]; HEK293, hIAPP (10 µM) : molecule 1:5, HEK-293 cells, normalized XTT data): 57.7%
- viability at 200 µM ([2]; HEK293, hIAPP (10 µM) : molecule 1:20, HEK-293 cells, normalized XTT data): 58.5%
- viability at 2 µM ([2]; HEK293, hIAPP (10 µM) : molecule 5:1, HEK-293 cells, normalized XTT data): 55.6%
- EC50 ([2]; HEK293, reduction of cytotoxicity of pre-formed hIAPP fibrils 10 µM, HEK-293): 10 µM
